Measurements: ChEMBL document CHEMBL3507680, “University of Dundee, Gates Library screen for HepG2 cell viability”

Test: Human HepG2 cell viability assay in 384 well format
Format: toxicity, cell-based
Set-up: dose 125 nL, time 70.5 hour; cytotoxicity at 70.5 h: concentration not given beside the values
Conditions: HepG2 cells, read-out: Inhibition

Structure (SMILES): CN(C)CC(=O)N1CCC2(CC1)CN(c1ccsc1)C(=O)CO2
- cytotoxicity at 70.5 h: 21%

Structure (SMILES): C[C@@H]1CN2C[C@H](O)CC2CN1Cc1ccncc1 (stereo partly drawn)
- cytotoxicity at 70.5 h: -3.16%

Structure (SMILES): CCOc1ccc(NC(=O)NCc2csc(NC)n2)cc1C
- cytotoxicity at 70.5 h: -5.86%

Structure (SMILES): CC(C)(C)C(=O)NCCC(=O)NS(=O)(=O)c1cccnc1
- cytotoxicity at 70.5 h: 9.3%

Structure (SMILES): CN(C)C(=O)N1C[C@@H]2CC[C@H](C1)N(C/C=C/c1ccc(F)cc1)C2
- cytotoxicity at 70.5 h: -9.21%

Structure (SMILES): Cc1cc(C)c2c(NCCC34CCCN3CCC4)ncnc2n1
- cytotoxicity at 70.5 h: -3.78%

Structure (SMILES): CS(=O)(=O)c1ccc(NC(=O)NCCC2=CCCCC2)cc1
- cytotoxicity at 70.5 h: -10.3%

Structure (SMILES): COCCCNC(=O)CN1CCOC(c2ccccc2)C1 (stereo not drawn)
- cytotoxicity at 70.5 h: 15.8%

Structure (SMILES): O=C(c1ccnnc1)N1C[C@@H]2C[C@@H](c3nc(C4CC4)cs3)O[C@@H]2C1
- cytotoxicity at 70.5 h: -3.56%

Structure (SMILES): CCc1nnc(CNC(=O)CCC2CCCCN2C)s1 (stereo not drawn)
- cytotoxicity at 70.5 h: 6.71%

Structure (SMILES): c1ccc(-c2cc(CNCCCN3CCCCC3)c3nnnn3c2)cc1
- cytotoxicity at 70.5 h: -0.978%

Structure (SMILES): COc1ccc(CN2CCN(Cc3nccn3C)C(C)C2)cc1F (stereo not drawn)
- cytotoxicity at 70.5 h: -9.42%

Structure (SMILES): CC(CNCC1(S(C)(=O)=O)CCOCC1)c1ccc(F)cc1 (stereo not drawn)
- cytotoxicity at 70.5 h: 9.05%

Structure (SMILES): CCc1nc(CN2CCOC(Cn3cncn3)C2)no1 (stereo not drawn)
- cytotoxicity at 70.5 h: 16.6%

Structure (SMILES): Cc1ccc([C@@H]2CN(C(=O)c3ccsc3)C[C@H]2NC(=O)C2CC2)cc1
- cytotoxicity at 70.5 h: -8.66%

Structure (SMILES): O=S(=O)(CCO)Cc1ccc(OCC(F)(F)F)cc1
- cytotoxicity at 70.5 h: -9.29%

Structure (SMILES): CCOc1ccc(OCC)c(NCc2cc(C)on2)c1
- cytotoxicity at 70.5 h: 8.35%

Structure (SMILES): O=C1CC(c2ccccc2)c2c(c(C(=O)O)cn2-c2ccccc2)N1 (stereo not drawn)
- cytotoxicity at 70.5 h: -10.7%

Structure (SMILES): O=C(c1ncncc1Cl)N1CCN(c2ccc(Cl)cc2)CC1
- cytotoxicity at 70.5 h: -8.8%

Structure (SMILES): CC(=O)N1CC[C@H]2OCC[C@@H](C(=O)N3CCCCO3)[C@@H]2C1
- cytotoxicity at 70.5 h: -20.9%

Structure (SMILES): CCc1noc(C)c1C(=O)N1CCC(c2[nH]ncc2S(C)(=O)=O)C1 (stereo not drawn)
- cytotoxicity at 70.5 h: -4.87%

Structure (SMILES): COc1ccc(C)c(NC(=O)NCc2cccc(N(C)C)n2)c1
- cytotoxicity at 70.5 h: -6.19%

Structure (SMILES): O=C(CNC(=O)C1CC1)Nc1c(F)cccc1Oc1ccccc1
- cytotoxicity at 70.5 h: -3.31%

Structure (SMILES): Cc1ccc(O)c(C(=O)N2CCCC2c2nncn2CC(C)C)c1 (stereo not drawn)
- cytotoxicity at 70.5 h: -0.402%

Structure (SMILES): Cc1ccccc1CC(=O)N(C)CC1(O)CCCN(c2ccccn2)C1 (stereo not drawn)
- cytotoxicity at 70.5 h: -5.53%

Structure (SMILES): Cn1ccnc1C1(O)CCCN(Cc2ccncc2)CC1 (stereo not drawn)
- cytotoxicity at 70.5 h: -2.25%

Structure (SMILES): COCCC1(C(=O)O)CCCN(CCOCc2ccccc2)C1 (stereo not drawn)
- cytotoxicity at 70.5 h: -3.38%

Structure (SMILES): O=C(NCc1ccccc1Cl)c1[nH]nc2c1CS(=O)(=O)CC2
- cytotoxicity at 70.5 h: -5.21%

Structure (SMILES): CC(C)N1CCC(CC(=O)NC(C(=O)O)c2cccc(F)c2)CC1 (stereo not drawn)
- cytotoxicity at 70.5 h: -5.14%

Structure (SMILES): CCC1(CO)CCCN(C(=O)c2ccc(N3CCN(C)CC3)cc2)C1 (stereo not drawn)
- cytotoxicity at 70.5 h: -4.46%

Structure (SMILES): Cc1nc2ccccn2c1CN1C[C@@H](CN(C)CCO)[C@@H](CO)C1
- cytotoxicity at 70.5 h: 5.92%

Structure (SMILES): CC(NC1CCCC1)c1ccccc1-n1cccn1 (stereo not drawn)
- cytotoxicity at 70.5 h: -6.22%

Structure (SMILES): CCN(CC(F)(F)F)C(=O)C1CCCN(Cc2ccno2)C1 (stereo not drawn)
- cytotoxicity at 70.5 h: -7.36%

Structure (SMILES): N#Cc1ccc(CN2CCC(c3ccnn3CCO)CC2)cc1
- cytotoxicity at 70.5 h: -2.2%

Structure (SMILES): COC(=O)CCN(C)C(=O)c1csc(Cc2ccccc2F)n1
- cytotoxicity at 70.5 h: 0.501%

Structure (SMILES): CC(C)(C)NC(=O)Cn1nc(C2CC2)cc(C(F)(F)F)c1=O
- cytotoxicity at 70.5 h: -1.18%

Structure (SMILES): c1csc(CN2Cc3nccn3CC(Cn3cncn3)C2)c1 (stereo not drawn)
- cytotoxicity at 70.5 h: 2.43%

Structure (SMILES): Cc1nc(Nc2nnc(C)s2)cc(C2CCCN2S(C)(=O)=O)n1 (stereo not drawn)
- cytotoxicity at 70.5 h: -1.79%

Structure (SMILES): C[C@@H]1CN(C(=O)[C@H]2CCCO2)C[C@]12CCN(c1ccsc1)C2=O
- cytotoxicity at 70.5 h: -11.7%

Structure (SMILES): O=C(CN1CCCCC1Cn1cccn1)NC1CCOCC1 (stereo not drawn)
- cytotoxicity at 70.5 h: -6.42%

Structure (SMILES): O=C(NCCc1cccs1)NC1CCN(c2ncccn2)CC1
- cytotoxicity at 70.5 h: -6.98%

Structure (SMILES): NC(=O)C1CCC(NC(=O)COc2ccc(Cl)c(Cl)c2)CC1 (stereo not drawn)
- cytotoxicity at 70.5 h: 2.5%

Structure (SMILES): Cc1noc(COCC(=O)Nc2ncccc2Br)n1
- cytotoxicity at 70.5 h: 2.34%

Structure (SMILES): CC(CNC(=O)c1cnccn1)Oc1ccc(F)cc1 (stereo not drawn)
- cytotoxicity at 70.5 h: -8.73%

Structure (SMILES): O=C(NCCNS(=O)(=O)C1CCCCC1)c1ccccc1
- cytotoxicity at 70.5 h: -10.7%

Structure (SMILES): COc1c(CNCc2ccc(Cn3ccnc3)cc2)c(C)nn1C
- cytotoxicity at 70.5 h: 0.712%

Structure (SMILES): O=C1CCCN1CC1CN(C(=O)CC2CCCC2)Cc2nccn2C1 (stereo not drawn)
- cytotoxicity at 70.5 h: -8.43%

Structure (SMILES): COc1cccc2c1OCC(CNC(=O)CN(C)C1CCCC1)C2 (stereo not drawn)
- cytotoxicity at 70.5 h: 6.99%

Structure (SMILES): CNC(=O)c1cc2c(nc1N(C)C)CCN(S(=O)(=O)C1CC1)CC2
- cytotoxicity at 70.5 h: 20.2%

Structure (SMILES): COCCNC(=O)Cn1c(C)cc2nc(SC)n(CC(C)C)c(=O)c21
- cytotoxicity at 70.5 h: 2.11%

Structure (SMILES): CCc1nnc2n1CCN(C(=O)c1cnn(C)c1C1CC1)C2
- cytotoxicity at 70.5 h: 8.38%

Structure (SMILES): CC(C)NC(=O)C1CN(C(=O)c2ccc(F)cc2)CC12CCOCC2 (stereo not drawn)
- cytotoxicity at 70.5 h: 23.6%

Structure (SMILES): CCS(=O)(=O)N1CCC(c2nnc(CN3CCOCC3)n2C)CC1
- cytotoxicity at 70.5 h: -2.17%

Structure (SMILES): Cn1ncc(C(=O)N2CCN(C(=O)c3ccco3)CC2)c1Cl
- cytotoxicity at 70.5 h: -13.4%

Structure (SMILES): Cc1cc2c(cc1NC(=O)NCC(C)C)OCO2
- cytotoxicity at 70.5 h: -8.91%

Structure (SMILES): COC(=O)CCNC(=O)c1cc(-c2ccc(OC)cc2)nn1C
- cytotoxicity at 70.5 h: -3.5%

Structure (SMILES): N#CCCNC(=O)CSc1cc(F)ccc1F
- cytotoxicity at 70.5 h: -9.07%

Structure (SMILES): CCc1nc(-c2ccnc(N3CCNCC3)n2)no1
- cytotoxicity at 70.5 h: -2.35%
